Like-named read-outs stand apart in the source and are kept apart here.
Legend:
[1] = log P by HPLC on reversed-phase columns (EEC Directive 79/831 Annex V.A8); format: physicochemical
[2] = tested on: caterpillars of the armyworm (Spodoptera frugiperda); experiment: Spodoptera frugiperda test (SPODFR spray treatment); format: in vivo; settings: for pest or weed control at 100 g/ha: Spodoptera frugiperda, 168 h, read-out: activity in % (caterpillars killed)
[3] = tested on: larvae of the mustard beetle (Phaedon cochleariae); experiment: Phaedon test (PHAECO spray treatment); settings: for pest or weed control at 100 g/ha: Phaedon cochleariae, 168 h, read-out: activity in % (beetle larvae killed)
[4] = reversed-phase C18 HPLC column, pH 2.7, HPLC reversed-phase C18, acidic range pH 2.7 (HCOOH), only or first value of the cell, read-out: log P
[5] = application rate 100 g/ha, after 7 days

Structure (SMILES)	chromatographic logP ([1]; pH 2.7, log P)	pest or weed control at 100 g/ha [2] [%]	pest or weed control at 100 g/ha [3] [%]	chromatographic logP [1, 4]	pest or weed control at 100 g/ha [2, 5] [%]	log P ([1]; HPLC reversed-phase C18, acidic range pH 2.7 (HCOOH), only or first value of the cell)	activity in % (caterpillars killed) [2, 5] [%]	activity in % (beetle larvae killed) [3, 5] [%]
COc1ccc(CNC(=O)c2cc(Cl)cc(C)c2NC(=O)c2cc(Cn3nnc(C(F)(F)F)n3)nn2-c2ncccc2Cl)cc1 [Example 102]	3.76	100	100	–	–	–	–	–
Cc1cc(C#N)cc(C(=O)NC2CCS(=O)(=O)C2)c1NC(=O)c1cc(Cn2nnc(C(F)(F)F)n2)nn1-c1c(F)cccc1F (stereo not drawn) [Example 52]	–	–	100	2.75	100	–	–	–
Cc1cc(Cl)cc(C(=O)Nc2ccc(Cl)cc2)c1NC(=O)c1cc(Cn2nnc(C(F)(F)F)n2)nn1-c1ncccc1Cl [Example 73]	4.17	100	100	–	–	–	–	–
Cc1cc(C#N)cc(C(=O)NC(C)c2ccccc2)c1NC(=O)c1cc(Cn2nnc(C(F)(F)F)n2)nn1-c1ccccc1Cl (stereo not drawn) [Example 74]	–	–	100	3.68	100	–	–	–
Cc1cc(Cl)cc(C(=O)NC(C)c2ccc(C(C)(C)C)cc2)c1NC(=O)c1cc(Cn2nnc(C(F)(F)F)n2)nn1-c1ncccc1Cl (stereo not drawn) [Example 115]	–	–	100	5.06	100	–	–	–
Cc1cc(Cl)cc(C(=O)NCc2ccccc2OC(F)F)c1NC(=O)c1cc(Cn2nnc(C(F)(F)F)n2)nn1-c1ncccc1Cl [Example 158]	–	–	100	4	100	–	–	–
Cc1cc(Cl)cc(C(=O)NCc2ncc(C(F)(F)F)cc2Cl)c1NC(=O)c1cc(Cn2nnc(C(F)(F)F)n2)nn1-c1ncccc1Cl [Example 230]	–	–	100	4.23	100	–	–	–
Cc1cc(C#N)cc(C(=O)NCc2cccc(OC(F)(F)F)c2)c1NC(=O)c1cc(Cn2nnc(C(F)(F)F)n2)nn1-c1ccccc1Cl [Example 213]	–	–	100	4.18	100	–	–	–
Cc1cc(C#N)cc(C(=O)NC2COC2)c1NC(=O)c1cc(Cn2nnnc2C(F)(F)F)nn1-c1ncccc1Cl [Example 12]	2.17	100	100	–	–	–	–	–
Cc1cc(Cl)cc(C(=O)NCc2ccc(C(C)(C)C)cc2)c1NC(=O)c1cc(Cn2nnc(C(F)(F)F)n2)nn1-c1ncccc1Cl [Example 91]	–	–	100	4.85	100	–	–	–
Cc1cc(Cl)cc(C(=O)NC(C)c2cccc(C(F)(F)F)c2)c1NC(=O)c1cc(Cn2nnc(C(F)(F)F)n2)nn1-c1ncccc1Cl (stereo not drawn) [Example 120]	–	–	100	4.42	100	–	–	–
Cc1cc(Cl)cc(C(=O)NCc2ccc(F)c(F)c2F)c1NC(=O)c1cc(Cn2nnc(C(F)(F)F)n2)nn1-c1ncccc1Cl [Example 108]	–	–	100	4.01	100	–	–	–
COc1cccc(CNC(=O)c2cc(Cl)cc(C)c2NC(=O)c2cc(Cn3nnc(C(F)(F)F)n3)nn2-c2ncccc2Cl)c1 [Example 101]	3.81	100	100	–	–	–	–	–
Cc1c(F)ccc(C(=O)NCc2ccccc2OC(F)(F)F)c1NC(=O)c1cc(Cn2nnc(C(F)(F)F)n2)nn1-c1ncccc1Cl [Example 185]	–	–	100	4.04	100	–	–	–
O=C(NCc1ccc(OC(F)(F)F)cc1)c1cc(Cl)cc(F)c1NC(=O)c1cc(Cn2nnc(C(F)(F)F)n2)nn1-c1ncccc1Cl [Example 211]	–	–	100	4.21	100	–	–	–
Cc1cc(Cl)cc(C(=O)NCc2cccc(F)c2)c1NC(=O)c1cc(Cn2nnc(C(F)(F)F)n2)nn1-c1ncccc1Cl [Example 98]	3.79	100	100	–	–	–	–	–
Cc1cc(Cl)cc(C(=O)NC(C)c2cccc(Cl)c2Cl)c1NC(=O)c1cc(Cn2nnc(C(F)(F)F)n2)nn1-c1ncccc1Cl (stereo not drawn) [Example 124]	–	–	100	4.57	100	–	–	–
Cc1cc(C#N)cc(C(=O)NCc2ccccc2)c1NC(=O)c1cc(Cn2nnc(C(F)(F)F)n2)nn1-c1ccccc1Cl [Example 71]	–	–	100	3.77	100	–	–	–
O=C(NCc1ccc(Cl)cc1)c1cc(Cl)cc(F)c1NC(=O)c1cc(Cn2nnc(C(F)(F)F)n2)nn1-c1ncccc1Cl [Example 208]	–	–	–	–	–	3.95	100	100
